ChEMBL document CHEMBL2434940, “Synthesis and antitumor activities of novel α-aminophosphonates dehydroabietic acid derivatives” (Bioorg Med Chem Lett, 2013)
Activity calls are given as the source filed them. The calls are words filed in the database; no cut-off is given here.

Legend:
[1] = tested on: NCI-H460; assay: Induction of apoptosis in human NCI-H460 cells assessed as necrotic/late apoptotic cells at 5 uM after 24 hrs by Annexin V-FITC and propidium iodide staining-based FACS flow cytometric analysis (reference value: 1.9%); type: functional
[2] = tested on: NCI-H460; assay: Induction of apoptosis in human NCI-H460 cells assessed as early apoptotic cells at 5 uM after 12 hrs by Annexin V-FITC and propidium iodide staining-based FACS flow cytometric analysis (reference value: 3.8%); type: functional
[3] = tested on: HepG2; assay: Cytotoxicity against human HepG2 cells after 48 hrs by MTT assay; type: functional, cell-based; conditions: HepG2, 48 h
[4] = tested on: NCI-H460; assay: Cell cycle arrest in human NCI-H460 cells assessed as accumulation at G2 phase at IC50 by propidium iodide staining-based FACS flow cytometric analysis relative to control; type: functional
[5] = tested on: NCI-H460; assay: Cell cycle arrest in human NCI-H460 cells assessed as accumulation at S phase at IC50 by propidium iodide staining-based FACS flow cytometric analysis relative to control; type: functional
[6] = tested on: NCI-H460; assay: Induction of apoptosis in human NCI-H460 cells after 12 hrs by Annexin V-FITC and propidium iodide staining-based FACS flow cytometric analysis; type: functional, cell-based
[7] = tested on: NCI-H460; assay: Induction of apoptosis in human NCI-H460 cells assessed as necrotic/late apoptotic cells at 5 uM after 12 hrs by Annexin V-FITC and propidium iodide staining-based FACS flow cytometric analysis (reference value: 1.9%); type: functional
[8] = tested on: NCI-H460; assay: Induction of apoptosis in human NCI-H460 cells assessed as membrane blebbing at 5 uM after 12 to 24 hrs by AO/EB staining-based fluorescence microscopic analysis; type: functional, cell-based
[9] = tested on: NCI-H460; assay: Cytotoxicity against human NCI-H460 cells at 5 uM after 12 to 24 hrs by AO/EB staining-based fluorescence microscopic analysis; type: cell-based; conditions: nci-h460, 5 µM
[10] = tested on: NCI-H460; assay: Induction of apoptosis in human NCI-H460 cells assessed as apoptotic ratio at 3 uM after 12 hrs by Annexin V-FITC and propidium iodide staining-based FACS flow cytometric analysis relative to control; type: functional
[11] = tested on: NCI-H460; assay: Induction of apoptosis in human NCI-H460 cells assessed as apoptotic ratio at 5 uM after 12 hrs by Annexin V-FITC and propidium iodide staining-based FACS flow cytometric analysis relative to control; type: functional
[12] = tested on: SK-OV-3; assay: Cytotoxicity against human SKOV3 cells after 48 hrs by MTT assay; type: functional, cell-based; conditions: SK-OV-3, 48 h
[13] = tested on: A549; assay: Cytotoxicity against human A549 cells after 48 hrs by MTT assay; type: functional, cell-based; conditions: A549, 48 h
[14] = tested on: NCI-H460; assay: Induction of apoptosis in human NCI-H460 cells at 5 uM after 12 to 24 hrs by Hoechst 33258 staining-based fluorescence microscopic analysis; type: functional, cell-based
[15] = tested on: NCI-H460; assay: Induction of apoptosis in human NCI-H460 cells assessed as loss of mitochondria membrane potential at 5 uM after 12 to 24 hrs by JC-1 staining-based fluorescence microscopic analysis; type: functional, cell-based
[16] = tested on: NCI-H460; assay: Induction of apoptosis in human NCI-H460 cells assessed as cell budding at 5 uM after 12 to 24 hrs by AO/EB staining-based fluorescence microscopic analysis; type: functional
[17] = tested on: NCI-H460; assay: Induction of apoptosis in human NCI-H460 cells assessed as pycnosis at 5 uM after 12 to 24 hrs by AO/EB staining-based fluorescence microscopic analysis; type: functional, cell-based
[18] = tested on: NCI-H460; assay: Cytotoxicity against human NCI-H460 cells after 48 hrs by MTT assay; type: functional, cell-based; conditions: NCI-H460, 48 h
[19] = tested on: NCI-H460; assay: Induction of apoptosis in human NCI-H460 cells assessed as early apoptotic cells at 5 uM after 24 hrs by Annexin V-FITC and propidium iodide staining-based FACS flow cytometric analysis (reference value: 3.8%); type: functional
[20] = tested on: NCI-H460; assay: Cell cycle arrest in human NCI-H460 cells assessed as accumulation at G1 phase at IC50 by propidium iodide staining-based FACS flow cytometric analysis relative to control; type: functional
[21] = tested on: NCI-H460; assay: Induction of apoptosis in human NCI-H460 cells assessed as early apoptotic cells at 45 uM after 24 hrs by Annexin V-FITC and propidium iodide staining-based FACS flow cytometric analysis (reference value: 1.5%); type: functional
[22] = tested on: NCI-H460; assay: Induction of apoptosis in human NCI-H460 cells assessed as necrotic/late apoptotic cells at 45 uM after 24 hrs by Annexin V-FITC and propidium iodide staining-based FACS flow cytometric analysis (reference value: 0.8%); type: functional
[23] = tested on: NCI-H460; assay: Induction of apoptosis in human NCI-H460 cells assessed as loss of mitochondria membrane potential at 45 uM after 24 hrs by JC-1 staining-based fluorescence microscopic analysis; type: functional, cell-based

SMILES | IC50 [3] | IC50 [12] | IC50 [13] | IC50 [18] | also measured
CCOP(=O)(OCC)C(NC(=S)NC(=O)[C@]1(C)CCC[C@]2(C)c3ccc(C(C)C)cc3CC[C@@H]12)c1ccccc1OC (stereo partly specified) | 7.7 µM | 18.9 µM | 18.4 µM | 3.33 µM | Activity [1]: 16.2%; Activity [2]: 14.3%; Activity [4]: 13.7%; Activity [5]: 23.49%; Activity [6]: Dose-dependent effect; Activity [7]: 5.2%; Activity [8]: Active; Activity [9]: Non-toxic; Activity [10]: 19.5%; Activity [11]: 51.5%; Activity [14]: Active; Activity [15]: Active; Activity [16]: Active; Activity [17]: Active; Activity [19]: 35.3%; Activity [20]: 62.8%
CCOP(=O)(OCC)C(NC(=S)NC(=O)[C@]1(C)CCC[C@]2(C)c3ccc(C(C)C)cc3CC[C@@H]12)c1ccc(C)cc1 (stereo partly specified) | 30 µM | 14.1 µM | 21.9 µM | 26.4 µM | –
CCOP(=O)(OCC)C(NC(=S)NC(=O)[C@]1(C)CCC[C@]2(C)c3ccc(C(C)C)cc3CC[C@@H]12)c1ccccc1 (stereo partly specified) | 15.2 µM | 12.1 µM | 24.2 µM | 28.1 µM | –
CCOP(=O)(OCC)C(NC(=S)NC(=O)[C@]1(C)CCC[C@]2(C)c3ccc(C(C)C)cc3CC[C@@H]12)c1cccc2ccccc12 (stereo partly specified) | > 50 µM | 19.1 µM | 28.3 µM | 32.6 µM | –
CCOP(=O)(OCC)C(NC(=S)NC(=O)[C@]1(C)CCC[C@]2(C)c3ccc(C(C)C)cc3CC[C@@H]12)c1ccc(Br)cc1 (stereo partly specified) | 24 µM | 14 µM | 20.2 µM | 18.7 µM | –
CCOP(=O)(OCC)C(NC(=S)NC(=O)[C@]1(C)CCC[C@]2(C)c3ccc(C(C)C)cc3CC[C@@H]12)c1ccccc1Cl (stereo partly specified) | 24.9 µM | 15.3 µM | 19.6 µM | 30.7 µM | –
CCOP(=O)(OCC)C(NC(=S)NC(=O)[C@]1(C)CCC[C@]2(C)c3ccc(C(C)C)cc3CC[C@@H]12)c1cccc(Br)c1 (stereo partly specified) | 15.2 µM | 20.7 µM | 19.5 µM | 14.8 µM | –
CCOP(=O)(OCC)C(NC(=S)NC(=O)[C@]1(C)CCC[C@]2(C)c3ccc(C(C)C)cc3CC[C@@H]12)c1ccc(F)cc1 (stereo partly specified) | 10.3 µM | 13.5 µM | 23.4 µM | 4.39 µM | –
CCOP(=O)(OCC)C(NC(=S)NC(=O)[C@]1(C)CCC[C@]2(C)c3ccc(C(C)C)cc3CC[C@@H]12)c1cccc(OC)c1 (stereo partly specified) | 18 µM | 9.96 µM | 29.6 µM | 15.8 µM | –
CCOP(=O)(OCC)C(NC(=S)NC(=O)[C@]1(C)CCC[C@]2(C)c3ccc(C(C)C)cc3CC[C@@H]12)c1cccc(Cl)c1 (stereo partly specified) | > 50 µM | 19.7 µM | 26.4 µM | 36.4 µM | –
CCOP(=O)(OCC)C(NC(=S)NC(=O)[C@]1(C)CCC[C@]2(C)c3ccc(C(C)C)cc3CC[C@@H]12)c1ccccc1Br (stereo partly specified) | 27.1 µM | 17.4 µM | 22.2 µM | 18.6 µM | –
O=c1[nH]cc(F)c(=O)[nH]1 [FLUOROURACIL] | 30 µM | – | – | – | Activity [4]: 0%; Activity [5]: 28.07%; Activity [21]: 16.8%; Activity [22]: 6.5%; Activity [23]: Active; Activity [20]: 71.93%
CCOP(=O)(OCC)C(NC(=S)NC(=O)[C@]1(C)CCC[C@]2(C)c3ccc(C(C)C)cc3CC[C@@H]12)c1ccc(OC)cc1 (stereo partly specified) | 32.1 µM | 21.4 µM | 15.3 µM | 25 µM | –
CCOP(=O)(OCC)C(NC(=S)NC(=O)[C@]1(C)CCC[C@]2(C)c3ccc(C(C)C)cc3CC[C@@H]12)c1cccc(F)c1 (stereo partly specified) | 31.6 µM | 13.7 µM | 24.4 µM | 27.5 µM | –
CCOP(=O)(OCC)C(NC(=S)NC(=O)[C@]1(C)CCC[C@]2(C)c3ccc(C(C)C)cc3CC[C@@H]12)c1ccc(Cl)cc1 (stereo partly specified) | 26.5 µM | 14.5 µM | 12.7 µM | 19.7 µM | –
CCOP(=O)(OCC)C(NC(=S)NC(=O)[C@]1(C)CCC[C@]2(C)c3ccc(C(C)C)cc3CC[C@@H]12)c1cccc(C)c1 (stereo partly specified) | 37.3 µM | 16.6 µM | 18.8 µM | 17.8 µM | –
CCOP(=O)(OCC)C(NC(=S)NC(=O)[C@]1(C)CCC[C@]2(C)c3ccc(C(C)C)cc3CC[C@@H]12)c1ccccc1F (stereo partly specified) | 11.4 µM | 10 µM | 14 µM | 17.8 µM | –
CCOP(=O)(OCC)C(NC(=S)NC(=O)[C@]1(C)CCC[C@]2(C)c3ccc(C(C)C)cc3CC[C@@H]12)c1ccc2ccccc2c1 (stereo partly specified) | > 50 µM | > 50 µM | 45.7 µM | 22.7 µM | –
